Values belong to the compound of their own block, whether it stands above or below them.
Assays:
MCF7 cells = experiment: BrdU incorporation (DNA synthesis) in quiescent MCF7 cells; type: cell-based; conditions: fulvestrant 10 nM during the last 24 h of the incubation without serum and insulin, results not shown
Protocol: MCF7 cells (ATCC HTB-22) were routinely cultivated in Dulbecco's Modified Eagle Medium (DMEM) comprising 5% serum, 6 ng/ml insulin, 0.1 mM non essential amino acids (NEAA, GIBCO), 1 mM Sodium pyruvate, 50 U/ml Penicillin and 50 μg/ml Streptomycin. The cells were rendered quiescent by incubating them for three days in phenol-free DMEM without serum and insulin, but supplemented with 0.1 mM NEAA (GIBCO), 1 mM Sodium pyruvate, 50 U/ml Penicillin and 50 μg/ml Streptomycin. Cells were kept quiescent (control) or were stimulated to proliferate by adding 5% serum and 6 ng/ml insulin in the culture medium. Samples were harvested 2 h, 4 h, 6 h, 8 h, 10 h, 12 h, 16 h, and 24 h after stimulation of MCF7 cells. Bromodeoxyuridine (BrdU, 10^−4 M) and fluorodeoxyuridine (2.10^−6 M) were added to the cells for the last 24 h of culture. BrdU staining was used to record DNA synthesis. […] DNA synthesis resumed 16 h after stimulation by serum and insulin (FIG. 5, dashed line).
When fulvestrant (10 nM) was added to the culture to block estrogen receptor action during the last 24 h of the incubation without serum and insulin, the proportion of cells starting DNA synthesis dropped to less than 2% (results not shown).

[1] = molecular target: biotinylated Avi-tagged luciferase/EGFP fusion (pWFAvi_IBc_luc) [luciferase: P08659]; experiment: pull-down from HEK293T extract on streptavidin-coated sepharose beads; bound luciferase activity relative to bound plus unbound
[2] = molecular target: T1, CDK7AS (mutated version of CDK7) in HCT116K7AS cells (Homo sapiens, UniProt P50613, D92E/F91G); experiment: Rb kinase activity of streptavidin-immobilized Avi-tagged cyclin D3/CDK4 fusion from HCT116K7AS cells treated with serum and CDK7AS inhibitor; type: cell-based
T1 construct: These cells express only a mutated version of CDK7 (CDK7AS); endogenous in cells; host or cells: HCT116K7AS cells transduced with the Avi-tagged cyclin D3/CDK4 reporter (HCT116K7AS-V26)
T1 sequence (P50613 whole entry F91G/D92E, the tested form may be a part): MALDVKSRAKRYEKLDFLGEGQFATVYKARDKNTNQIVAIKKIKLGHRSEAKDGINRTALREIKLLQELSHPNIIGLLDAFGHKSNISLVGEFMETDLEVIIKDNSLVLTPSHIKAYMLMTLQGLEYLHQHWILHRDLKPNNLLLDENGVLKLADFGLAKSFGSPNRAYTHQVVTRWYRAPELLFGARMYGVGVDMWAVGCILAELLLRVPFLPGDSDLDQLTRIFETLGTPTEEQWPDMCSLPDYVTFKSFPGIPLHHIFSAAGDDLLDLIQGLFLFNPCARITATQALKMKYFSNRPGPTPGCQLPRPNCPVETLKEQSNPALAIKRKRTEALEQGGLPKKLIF
T1 sequence (P51946 whole entry partner, the tested form may be a part): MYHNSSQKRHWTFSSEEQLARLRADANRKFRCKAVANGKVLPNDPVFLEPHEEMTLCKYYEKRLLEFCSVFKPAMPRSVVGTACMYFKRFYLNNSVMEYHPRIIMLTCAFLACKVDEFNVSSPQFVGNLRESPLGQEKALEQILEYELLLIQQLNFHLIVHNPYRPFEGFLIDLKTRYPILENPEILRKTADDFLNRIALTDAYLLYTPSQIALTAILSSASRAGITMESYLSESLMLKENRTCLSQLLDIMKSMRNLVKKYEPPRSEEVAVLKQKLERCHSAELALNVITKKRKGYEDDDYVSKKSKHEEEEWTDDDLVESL
T1 sequence (P51948 whole entry partner, the tested form may be a part): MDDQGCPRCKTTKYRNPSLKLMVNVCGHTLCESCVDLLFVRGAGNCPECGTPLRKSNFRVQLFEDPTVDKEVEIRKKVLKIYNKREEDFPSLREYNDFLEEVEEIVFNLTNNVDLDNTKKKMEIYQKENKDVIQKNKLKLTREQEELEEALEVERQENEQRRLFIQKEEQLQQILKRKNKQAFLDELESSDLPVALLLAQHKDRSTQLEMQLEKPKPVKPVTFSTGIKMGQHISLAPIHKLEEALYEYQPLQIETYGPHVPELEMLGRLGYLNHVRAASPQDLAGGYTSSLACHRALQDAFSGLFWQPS
Protocol: In order to verify if transgenes expressed in HCT116K7AS cells after transduction with the vectors described in Example 8 could be immobilized on streptavidin-coated sepharose beads and were enzymatically active, the HCT116K7AS cells expressing the cyclin D3/CDK4 fusion protein described in the Example 14 were cultivated in 6 cm Petri dishes with 10 ml DMEM medium supplemented with 10% serum, Sodium pyruvate (1 mM), Penicillin (50 U/ml) and Streptomycin (50 μg/ml). These cells express only a mutated version of CDK7 (CDK7AS) inhibitable by bulky ATP analogs such as 1-NMPP1 (Santa Cruz). The cells were rendered quiescent by incubating them for three days in DMEM without serum, but supplemented with biotin (0.1 mM), Sodium pyruvate (1 mM), Penicillin (50 U/ml) and Streptomycin (50 μg/ml). Cells were stimulated to proliferate by adding 10% serum for 5 or 16 hours in the continuous presence of biotin (0.1 mM). As indicated, vehicle (DMSO) or CDK7AS inhibitor (1-NMPP1) were added together with serum for the same time or for an additional pulse of 1 hour. […]
The pRb kinase assay was performed on the cellular extract bound to the streptavidin-coated sepharose beads as described previously (Coulonval et al., supra). […] The phosphorylation on T826 of the pRb fragment was detected using a phospho-specific anti-pRb (T826) antibody (Epitomics). […]

Compound: C[C@]12CC[C@@H]3c4ccc(O)cc4C[C@@H](CCCCCCCCC[S+]([O-])CCCC(F)(F)C(F)(F)F)[C@H]3[C@@H]1CC[C@@H]2O (stereo partly shown) [fulvestrant]
proportion of cells starting DNA synthesis (MCF7 cells): less than 2%

percent of the total luciferase activity bound [1]: < 40%
Compound: streptavidin (from UniProt P22629 37-163)

serum stimulation of Rb kinase activity of the biotinylatable Cyclin D3/CDK4 fusion ([2]; inhibitor added during the last hour of 17 hours serum stimulation, HCT116K7AS (FIG. 12)): severely impaired
serum induction of Rb kinase activity of the biotinylatable Cyclin D3/CDK4 fusion ([2]; inhibitor present together with serum for 5 hours, HCT116K7AS, P-Rb T826 immunoblot (FIG. 12)): prevented
Compound: CC(C)(C)n1nc(Cc2cccc3ccccc23)c2c(N)ncnc21 [1-NMPP1]

From US20150299764A1, “IMMOBILISED CYCLIN-DEPENDENT KINASE 4 FUSION PROTEINS AND USES THEREOF” (UNIVERSITE LIBRE DE BRUXELLES, priority 2012, published 2015)
